Where a name gives a salt, the structure may show the parent alone.
Tests used:
[1] = system: full length SMN2 minigene mRNA (HEK293H cells stably transfected with the SMN2-A minigene construct); test: RT-qPCR assay for SMN2 minigene pre-mRNA splicing in cultured cells; type: cell-based; details: Homo sapiens, HEK293-H, 24 hours, 7-point concentration curve, concentration giving 1.5-fold FL SMN2mini mRNA vs vehicle, read-out: EC1.5x minigene (EC1.5x concentration for production of full length SMN2 minigene mRNA)
Experimental: The reverse transcription-quantitative PCR-based (RT-qPCR) assay is used to quantify the level of the full length SMN2 minigene (referred to herein by the term “FL SMN2mini”) mRNA containing SMN2 exon 7 in a HEK293H cell line stably transfected with said minigene and treated with a test compound. Materials used and respective sources are listed below in Table 1.
The SMN2-A minigene construct was prepared as described in International Patent Application WO2009/151546A1 page 145 paragraph [00400] to page 147 paragraph [00412] (incl. FIG. 1 and FIG. 3 therein).
HEK293H cells stably transfected with the SMN2-A minigene construct (10,000 cells/well) are seeded in 200 μL of cell culture medium (DMEM plus 10% FBS, with 200 μg/mL hygromycin) in 96-well flat-bottom plates and the plate is immediately swirled to ensure proper dispersal of cells and the formation of an even monolayer of cells. Cells are allowed to attach for 6 hours. Test compounds are serially diluted 3.16-fold in 100% DMSO to generate a 7-point concentration curve. A solution of test compound (1 μL, 200× in DMSO) is added to each cell-containing well and the plate is incubated for 24 hours in a cell culture incubator (37° C., 5% CO2, 100% relative humidity). 2 replicates are prepared for each test compound concentration. The cells are then lysed in the Cells-To-Ct lysis buffer and the lysate is stored at −80° C.
Full length SMN2-A minigene and GAPDH mRNA are quantified using the primers and probes referenced in Table 2. Primer SMN Forward A (SEQ ID NO.1) hybridizes to a nucleotide sequence in exon 7 (nucleotide 22 to nucleotide 40), primer SMN Reverse A (SEQ ID NO.2) hybridizes to a nucleotide sequence in the coding sequence of Firefly luciferase, SMN Probe A (SEQ ID NO.3) hybridizes to a nucleotide sequence in exon 7 (nucleotide 50 to nucleotide 54) and exon 8 (nucleotide 1 to nucleotide 21). The combination of these three oligonucleotides detects only SMN1 or SMN2 minigenes (RT-qPCR) and will not detect endogenous SMN1 or SMN2 genes.
The SMN forward and reverse primers are used at final concentrations of 0.4 μM. The SMN probe is used at a final concentration of 0.15 μM. The GAPDH primers are used at final concentrations of 0.2 μM and the probe at 0.15 μM.
The SMN2-minigene GAPDH mix (15 μL total volume) is prepared by combining 7.5 of 2×RT-PCR buffer, 0.4 μL of 25×RT-PCR enzyme mix, 0.75 μL of 20× GAPDH primer-probe mix, […] of water, 2 μL of 10-fold diluted cell lysate, 0.06 μL of 100 μM SMN forward primer, 0.06 μL of 100 μM SMN reverse primer, and 0.225 μL of 100 μM SMN probe.
PCR is carried out at the following temperatures for the indicated time: Step 1: 48° C. (15 min); Step 2: 95° C. (10 min); Step 3: 95° C. (15 sec); Step 4: 60° C. (1 min); then repeat Steps 3 and 4 for a total of 40 cycles.
Each reaction mixture contains both SMN2-A minigene and GAPDH primers/probe sets (multiplex design), allowing simultaneous measurement of the levels of two transcripts.
The increase in the abundance of the FL SMN2mini mRNA relative to that in cells treated with vehicle control is determined from real-time PCR data using a modified ΔΔCt method (as described in Livak and Schmittgen, Methods, 2001, 25:402-8). The amplification efficiency E is calculated from the slope of the amplification curve for FL SMN2mini and GAPDH individually. The abundance of FL SMN2mini and GAPDH mRNA are then calculated as (1+E)^−Ct, where Ct is the threshold value for each amplicon. The abundance of FL SMN2mini mRNA is normalized to GAPDH mRNA abundance. The normalized FL SMN2mini mRNA abundance from test compound-treated samples is then divided by normalized FL SMN2mini mRNA abundance from vehicle-treated cells to determine the level of FL SMN2mini mRNA relative to vehicle control. […]

[2] = system: SMN protein in SMA patient fibroblast cells (GM03813); test: SMN protein assay (HTRF) in cultured cells; type: cell-based; details: Homo sapiens, SMA Type 1 patient fibroblasts, 48 hours; for EC (1.5-fold): 7-point concentration curve, concentration giving 1.5 times SMN protein vs vehicle, read-out: EC1.5x SMN protein (EC1.5x concentration for SMN protein expression); for maximal fold induction: fold increase relative to vehicle control, read-out: Max. fold increase of SMN protein
Experimental: The SMN HTRF (homogeneous time resolved fluorescence) assay is used to quantify the level of SMN protein in SMA patient fibroblast cells treated with test compounds. Materials used and respective sources are listed below in Table 4.
Cells are thawed and cultured in DMEM-10% FBS for 72 hours. Cells are trypsinized, counted and re-suspended to a concentration of 25,000 cells/mL in DMEM-10% FBS. The cell suspensions are plated at 5,000 cells per well in a 96 well microtiter plate and incubated for 3 to 5 hours. Test compounds are serially diluted 3.16-fold in 100% DMSO to generate a 7-point concentration curve. 1 μL of test compound solution is transferred to cell-containing wells and cells are incubated for 48 hours in a cell culture incubator (37° C., 5% CO2, 100% relative humidity). Triplicate samples are set up for each test compound concentration. After 48 hours, the supernatant is removed from the wells and 25 μL of the RIPA lysis buffer, containing protease inhibitors, is added to the wells and incubated with shaking at room temperature for 1 hour. 25 μL of the diluent is added and then 35 μL of the resulting lysate is transferred to a 384-well plate, where each well contains 5 μL of the antibody solution (1:100 dilution of anti-SMN d2 and anti-SMN cryptate in SMN reconstitution buffer). The plate is centrifuged for 1 minute to bring the solution to the bottom of the wells, then incubated overnight at room temperature. Fluorescence for each well of the plate at 665 nm and 620 nm is measured on an EnVision multilabel plate reader (Perkin-Elmer).
The normalized fluorescence signal is calculated for each sample, Blank and vehicle control well by dividing the signal at 665 nm by the signal at 620 nm. Normalizing the signal accounts for possible fluorescence quenching due to the matrix effect of the lysate. The ΔF value (a measurement of SMN protein abundance as a percent value) for each sample well is calculated by subtracting the normalized average fluorescence for the Blank control wells from the normalized fluorescence for each sample well, then dividing this difference by the normalized average fluorescence for the Blank control wells and multiplying the resulting value by 100. The ΔF value for each sample well represents the SMN protein abundance from test compound-treated samples. The ΔF value for each sample well is divided by the ΔF value for the vehicle control wells to calculate the fold increase in SMN protein abundance relative to the vehicle control. Table 5 provides EC1.5× concentrations for SMN protein expression that was obtained from the 7-point concentration data generated according to the above procedure for particular compounds of the present invention.
Table 6 provides the maximum fold increase of SMN protein that was obtained from the 7-point concentration data generated according to the above procedure for particular compounds of the present invention

Row | SMILES | EC (1.5-fold) [1] [µM] | EC (1.5-fold) [2] [µM] | maximal fold induction [2]
1 | CCOc1cc(N2CCN3CCC[C@H]3C2)ccc1C(=O)Nc1cn2cc(C)nc2c(C)n1 [Example 12, 4-[(8aS)-3,4,6,7,8,8a-hexahydro-1H-pyrrolo[1,2-a]pyrazin-2-yl]-N-(2,8-dimethylimidazo[1,2-a]pyrazin-6-yl)-2-ethoxybenzamide] | 0.145 | 1.73 | 1.56
2 | CCOc1cc(N2CCN[C@H](C)C2)ccc1C(=O)Nc1cn2cc(C)nc2cn1 [Example 5, 2-ethoxy-N-(2-methylimidazo[1,2-a]pyrazin-6-yl)-4-[(3R)-3-methylpiperazin-1-yl]benzamide] | 0.041 | 0.185 | 1.9
3 | COc1cc(N2CC[C@@H](N3CCCC3)C2)ccc1C(=O)Nc1cn2cc(C)nc2cn1 [Example 39, 2-methoxy-N-(2-methylimidazo[1,2-a]pyrazin-6-yl)-4-[(3R)-3-pyrrolidin-1-ylpyrrolidin-1-yl]benzamide] | 0.118 | 0.379 | 1.75
4 | Cc1cn2cc(NC(=O)c3ccc(N4CCNC(C)C4)c(F)c3F)ncc2n1 (stereo not drawn) [Example 30, 2,3-difluoro-N-(2-methylimidazo[1,2-a]pyrazin-6-yl)-4-(3-methylpiperazin-1-yl)benzamide hydrochloride] | 0.165 | 0.603 | 1.82
5 | Cc1cn2cc(NC(=O)c3ccc(N4CCNCC4)cc3F)ncc2n1 [Example 1, 2-fluoro-N-(2-methylimidazo[1,2-a]pyrazin-6-yl)-4-piperazin-1-ylbenzamide hydrochloride] | 0.0374 | 0.087 | 1.9
6 | COc1cc(N2C[C@@H](C)N[C@@H](C)C2)ccc1C(=O)Nc1cn2cc(C)nc2cn1 [Example 31, 4-[(3R,5S)-3,5-dimethylpiperazin-1-yl]-2-methoxy-N-(2-methylimidazo[1,2-a]pyrazin-6-yl)benzamide] | 0.0358 | 0.221 | 1.87
7 | CCc1nc(NC(=O)c2ccc(N3CCN[C@H](C)C3)cc2F)cn2cc(C)nc12 [Example 21, N-(8-ethyl-2-methylimidazo[1,2-a]pyrazin-6-yl)-2-fluoro-4-[(3R)-3-methylpiperazin-1-yl]benzamide hydrochloride] | 0.0204 | 0.162 | 1.8
8 | COc1cc(N2CCNC(C)(C)C2)ccc1C(=O)Nc1cn2cc(C)nc2cn1 [Example 41, 4-(3,3-dimethylpiperazin-1-yl)-2-methoxy-N-(2-methylimidazo[1,2-a]pyrazin-6-yl)benzamide] | 0.0464 | 0.242 | 2.05
9 | Cc1cn2cc(NC(=O)c3ccc(N4C[C@@H](C)N[C@@H](C)C4)cc3F)nc(C)c2n1 [Example 19, N-(2,8-dimethylimidazo[1,2-a]pyrazin-6-yl)-4-[(3R,5S)-3,5-dimethylpiperazin-1-yl]-2-fluorobenzamide] | 0.003 | 0.0274 | 1.71
10 | Cc1cn2cc(NC(=O)c3ccc(N4CCNC(C)(C)C4)cc3F)ncc2n1 [Example 35, 4-(3,3-dimethylpiperazin-1-yl)-2-fluoro-N-(2-methylimidazo[1,2-a]pyrazin-6-yl)benzamide hydrochloride] | 0.0317 | 0.505 | 2.16
11 | Cc1cn2cc(NC(=O)c3ccc(N4CCN[C@H](C)C4)cc3F)nc(C(F)(F)F)c2n1 [Example 43, 2-fluoro-4-[(3R)-3-methylpiperazin-1-yl]-N-[2-methyl-8-(trifluoromethyl)imidazo[1,2-a]pyrazin-6-yl]benzamide] | 0.04 | 0.087 | 1.76
12 | Cc1cn2cc(NC(=O)c3ccc(N4CCN5CCC[C@@H]5C4)cc3F)nc(C3CC3)c2n1 [Example 22, 4-[(8aR)-3,4,6,7,8,8a-hexahydro-1H-pyrrolo[1,2-a]pyrazin-2-yl]-N-(8-cyclopropyl-2-methylimidazo[1,2-a]pyrazin-6-yl)-2-fluorobenzamide] | 0.0952 | 0.66 | 1.5
13 | Cc1cn2cc(NC(=O)c3c(F)cc(N4CCN[C@H](C)C4)cc3F)nc(C)c2n1 [Example 14, N-(2,8-dimethylimidazo[1,2-a]pyrazin-6-yl)-2,6-difluoro-4-[(3R)-3-methylpiperazin-1-yl]benzamide] | 0.0097 | 0.124 | 1.61
14 | Cc1cn2cc(NC(=O)c3c(F)cc(N4CCNCC4)cc3Cl)ncc2n1 [Example 28, 2-chloro-6-fluoro-N-(2-methylimidazo[1,2-a]pyrazin-6-yl)-4-piperazin-1-ylbenzamide hydrochloride] | 2.03 | 8.76 | 1.65
15 | Cc1cn2cc(NC(=O)c3ccc(N4CCNC5(CC5)C4)cc3F)ncc2n1 [Example 26, 4-(4,7-diazaspiro[2.5]octan-7-yl)-2-fluoro-N-(2-methylimidazo[1,2-a]pyrazin-6-yl)benzamide hydrochloride] | 0.0596 | 1.61 | 1.57
